Laboratory results as given in the NIST ThermoML archive (doi:10.1016/j.jct.2018.04.019).
Values joined by “and” are separate entries in the source; they are usually repeats but may differ in a detail not shown here. Identical values can stand only once.

Conditions: Liquid; for speed of sound: Frequency=5 MHz, Pulse-echo method; for mass density: Vibrating tube method

CCCCCCCCC [nonane]
Conditions	mass density	speed of sound
373.14 K, 360090 kPa	–	2160.1 m/s
373.14 K, 389860 kPa	–	2212.9 m/s
373.15 K, 1010 kPa	654.52 kg/m3	–
373.15 K, 5050 kPa	659.99 kg/m3	–
373.15 K, 10030 kPa	666.13 kg/m3	–
373.15 K, 15070 kPa	671.78 kg/m3	–
373.15 K, 20030 kPa	677.04 kg/m3	–
373.15 K, 25060 kPa	681.94 kg/m3	–
373.15 K, 30040 kPa	686.51 kg/m3	–
373.15 K, 35060 kPa	690.83 kg/m3	–
373.15 K, 40020 kPa	694.95 kg/m3	–
373.15 K, 45070 kPa	698.87 kg/m3	–
373.15 K, 50070 kPa	702.65 kg/m3	–
373.15 K, 55060 kPa	706.23 kg/m3	–
373.15 K, 60040 kPa	709.66 kg/m3	–
373.15 K, 65030 kPa	712.95 kg/m3	–
398.14 K, 1100 kPa	–	835.44 m/s and 835.46 m/s
398.14 K, 30140 kPa	–	1079.8 m/s
398.14 K, 60240 kPa	–	1254.1 m/s
398.14 K, 90220 kPa	–	1391.9 m/s
398.14 K, 120200 kPa	–	1508.5 m/s
398.14 K, 150150 kPa	–	1610.2 m/s
398.14 K, 180170 kPa	–	1701.7 m/s
398.14 K, 210020 kPa	–	1784.3 m/s
398.14 K, 240150 kPa	–	1861.3 m/s
398.14 K, 270210 kPa	–	1933.1 m/s
398.14 K, 299860 kPa	–	1999.6 m/s
398.14 K, 330010 kPa	–	2063.7 m/s
398.14 K, 360010 kPa	–	2124 m/s
398.14 K, 389950 kPa	–	2182.2 m/s
398.15 K, 1020 kPa	633.06 kg/m3	–
398.15 K, 5020 kPa	639.53 kg/m3	–
398.15 K, 5030 kPa	639.58 kg/m3	–
398.15 K, 10050 kPa	646.89 kg/m3	–
398.15 K, 15070 kPa	653.53 kg/m3	–
398.15 K, 20020 kPa	659.49 kg/m3	–
398.15 K, 25030 kPa	665.05 kg/m3	–
398.15 K, 30050 kPa	670.22 kg/m3	–
398.15 K, 35050 kPa	675.1 kg/m3	–
398.15 K, 40020 kPa	679.63 kg/m3	–
398.15 K, 45070 kPa	683.97 kg/m3	–
398.15 K, 50020 kPa	688.07 kg/m3	–
398.15 K, 55040 kPa	692.01 kg/m3	–
398.15 K, 60030 kPa	695.72 kg/m3	–
398.15 K, 65040 kPa	699.37 kg/m3	–
423.14 K, 1110 kPa	–	747.67 m/s
423.14 K, 1120 kPa	–	747.72 m/s
423.14 K, 29690 kPa	–	1013.6 m/s
423.14 K, 60210 kPa	–	1199.1 m/s
423.14 K, 90050 kPa	–	1341 m/s
423.14 K, 120570 kPa	–	1462.7 m/s
423.14 K, 150110 kPa	–	1565.4 m/s
423.14 K, 180160 kPa	–	1658.8 m/s
423.14 K, 210180 kPa	–	1744 m/s
423.14 K, 239990 kPa	–	1822.3 m/s
423.14 K, 270120 kPa	–	1895.7 m/s
423.14 K, 299980 kPa	–	1964.4 m/s
423.14 K, 330040 kPa	–	2029.4 m/s
423.14 K, 360020 kPa	–	2089.7 m/s
423.14 K, 389720 kPa	–	2146.1 m/s
423.15 K, 1020 kPa	610.45 kg/m3	–
423.15 K, 5030 kPa	618.47 kg/m3 and 618.42 kg/m3	–
423.15 K, 10030 kPa	627.15 kg/m3	–
423.15 K, 15030 kPa	634.86 kg/m3	–
423.15 K, 20040 kPa	641.8 kg/m3	–
423.15 K, 25040 kPa	648.1 kg/m3	–
423.15 K, 30020 kPa	653.92 kg/m3	–
423.15 K, 35050 kPa	659.35 kg/m3	–
423.15 K, 40020 kPa	664.4 kg/m3	–
423.15 K, 45020 kPa	669.15 kg/m3	–
423.15 K, 50040 kPa	673.7 kg/m3	–
423.15 K, 55020 kPa	677.97 kg/m3	–
423.15 K, 60030 kPa	682.03 kg/m3	–
423.15 K, 65040 kPa	685.95 kg/m3	–
448.15 K, 1000 kPa	586.37 kg/m3	–
448.15 K, 1040 kPa	–	660.9 m/s
448.15 K, 5020 kPa	596.41 kg/m3 and 596.46 kg/m3	–
448.15 K, 10040 kPa	607.05 kg/m3	–
448.15 K, 15010 kPa	616.06 kg/m3	–
448.15 K, 20010 kPa	624 kg/m3	–
448.15 K, 25040 kPa	631.27 kg/m3	–
448.15 K, 30030 kPa	637.78 kg/m3	–
448.15 K, 30440 kPa	–	960.29 m/s
448.15 K, 35030 kPa	643.8 kg/m3	–
448.15 K, 40010 kPa	649.38 kg/m3	–
448.15 K, 45050 kPa	654.67 kg/m3	–
448.15 K, 50020 kPa	659.58 kg/m3	–
448.15 K, 55040 kPa	664.24 kg/m3	–
448.15 K, 60030 kPa	668.62 kg/m3	–
448.15 K, 60490 kPa	–	1150.5 m/s
448.15 K, 65020 kPa	672.85 kg/m3	–
448.15 K, 90220 kPa	–	1296 m/s
448.15 K, 120320 kPa	–	1418.8 m/s
448.15 K, 150280 kPa	–	1525 m/s
448.15 K, 180150 kPa	–	1619.4 m/s
448.15 K, 209900 kPa	–	1704.9 m/s
448.15 K, 239920 kPa	–	1784.3 m/s
448.15 K, 270080 kPa	–	1858.4 m/s
448.15 K, 299830 kPa	–	1929.8 m/s
448.15 K, 330050 kPa	–	1995.9 m/s
448.15 K, 359980 kPa	–	2059.2 m/s
448.15 K, 390310 kPa	–	2115.1 m/s
473.15 K, 1010 kPa	–	574.55 m/s
473.15 K, 5010 kPa	573.14 kg/m3	–
473.15 K, 10040 kPa	586.15 kg/m3	–
473.15 K, 15040 kPa	596.86 kg/m3	–
473.15 K, 20020 kPa	606.05 kg/m3	–
473.15 K, 25050 kPa	614.28 kg/m3	–
473.15 K, 30020 kPa	621.6 kg/m3	–
473.15 K, 30430 kPa	–	906.04 m/s
473.15 K, 35030 kPa	628.3 kg/m3	–
473.15 K, 40050 kPa	634.51 kg/m3	–
473.15 K, 45050 kPa	640.25 kg/m3	–
473.15 K, 50040 kPa	645.6 kg/m3	–
473.15 K, 55020 kPa	650.62 kg/m3	–
473.15 K, 60010 kPa	655.39 kg/m3	–
473.15 K, 60390 kPa	–	1104.6 m/s
473.15 K, 65010 kPa	659.92 kg/m3	–
473.15 K, 90200 kPa	–	1255.4 m/s
473.15 K, 120100 kPa	–	1381 m/s
473.15 K, 150230 kPa	–	1490.6 m/s
473.15 K, 180260 kPa	–	1587.6 m/s
473.15 K, 210230 kPa	–	1675.8 m/s
473.15 K, 240070 kPa	–	1755.4 m/s
473.15 K, 270130 kPa	–	1830.8 m/s
473.15 K, 300080 kPa	–	1901.9 m/s
473.15 K, 330030 kPa	–	1964.8 m/s
473.15 K, 360070 kPa	–	2026.3 m/s
473.15 K, 390060 kPa	–	2084 m/s
